These results are taken from ChEMBL document CHEMBL1201862, “PubChem BioAssay data set” (2004).

Each structure is given as a SMILES string.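 1) Cells in 96-well plates. 2) Compound, 48 h, 5 concentrations. 3) Linear interpolation between surrounding doses. 4) Unreached endpoint = highest concentration. Here, GI50 denotes the concentration required for 50% inhibition of growth.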 Calls of active or inactive are those of the source. Cut-off read from the data, not from the text of the source: active = GI50 up to about 1.1 µM and inactive = higher.

Common to all, as to experiment: NCI tumour cell line growth inhibition, 48 h
Experiment [1] concerns A549.
The test system of experiment [2] is BT-549.
Experiment [3] concerns CAKI-1.
Experiment [4] has as its system HCC 2998.
In experiment [5] the test system is HCT-116.
The subject of experiment [6] is HOP-62.
Experiment [7] relates to LOX IMVI.
In experiment [8] the test system is MDA-MB-231.
Experiment [9] deals with MDA-MB-435.
Experiment [10] deals with NCI-H226.
For experiment [11], the system named is OVCAR-5.
Experiment [12] relates to PC-3.
Experiment [13] concerns RPMI-8226.
Experiment [14] relates to SK-MEL-5.
In experiment [15] the test system is SNB-19.
Experiment [16] concerns UACC-257.
For experiment [17], the system named is UO-31.
For experiment [18], the system named is NCI-H460.
For experiment [19], the system named is SK-MEL-2.
The test system of experiment [20] is OVCAR-4.

`CC#CC(O)(C(=O)OC1CC(C)N(C)C(C)(C)C1)C1CCCC1` (configuration not stated): the GI50 in experiment [1], in [2], in [3], in experiment [4], in experiment [5] and in experiment [6] was > 100 µM (inactive) each time. Moreover, the GI50 in experiment [7], in experiment [8], in experiment [9], in experiment [10], in [11] and in experiment [12] was > 100 µM (inactive) each time. Besides, the GI50 in experiment [13], in [14], in experiment [15], in experiment [16] and in [17] was > 100 µM (inactive) each time.

Regarding `O=C1c2ccccc2C(=O)N1n1c(Cc2ccc([N+](=O)[O-])cc2)n[nH]c1=O`, the GI50 in experiment [1], in experiment [2], in experiment [3], in experiment [4], in experiment [5] and in [6] was > 100 µM (inactive) each time. Moreover, the GI50 in experiment [8], in experiment [9], in experiment [10], in experiment [18], in experiment [11] and in experiment [12] was > 100 µM (inactive) each time. Besides, the GI50 in experiment [13] is > 100 µM (inactive); in experiment [19] it was 75.2 µM (inactive); in experiment [14] it was > 100 µM (inactive); in experiment [15] it was > 100 µM (inactive); in experiment [16], > 100 µM (inactive); in experiment [17], > 100 µM (inactive).

Regarding `Cc1cn(CCOCCOC(=O)NC(CCCNC(=N)N)C(=O)O)c(=O)[nH]c1=O` (configuration not stated), the GI50 in [1], in [2], in [4], in experiment [5], in experiment [6] and in experiment [7] was > 100 µM (inactive) each time. Moreover, the GI50 in [8], in experiment [9], in experiment [10], in experiment [18], in experiment [20] and in experiment [11] was > 100 µM (inactive) each time. In addition, the GI50 in experiment [12], in experiment [13], in experiment [19], in [15], in [16] and in experiment [17] was > 100 µM (inactive) each time.

Take `c1cc(-c2cscc2-c2ccsc2)cs1`: the GI50 is 43.6 µM (inactive) in [1]; 37.8 µM (inactive) in [2]; > 100 µM (inactive) in experiment [3]; 27.4 µM (inactive) in [4]; 40.5 µM (inactive) in experiment [5]; 26.5 µM (inactive) in [6]. The GI50 in [7] is 37.6 µM (inactive); in [8], > 100 µM (inactive); in [9] it was 36.4 µM (inactive); in experiment [18], 43.9 µM (inactive); in experiment [20], 37.8 µM (inactive); in experiment [11], 53.2 µM (inactive). Also, the GI50 in [12] is 27.5 µM (inactive); in [13], 34.9 µM (inactive); in [19], 4.65 µM (inactive); in experiment [14], 31 µM (inactive); in experiment [16], 58.2 µM (inactive); in [17] it was 72.9 µM (inactive).

Consider `O=C(/C=C/c1c[nH]c2ccccc12)c1ccccc1O`, for which the GI50 was 10.5 µM (inactive) in [1]; 12.4 µM (inactive) in experiment [2]; 11 µM (inactive) in experiment [4]; 12.9 µM (inactive) in [5]; 14.3 µM (inactive) in experiment [6]; 5.08 µM (inactive) in [7]. The GI50 was 3.18 µM (inactive) in experiment [8]; 4.88 µM (inactive) in [9]; 16.7 µM (inactive) in experiment [10]; 13.2 µM (inactive) in experiment [18]; 10.7 µM (inactive) in [20]; 13.6 µM (inactive) in experiment [11]. The GI50 was 4.03 µM (inactive) in experiment [12]; 9.27 µM (inactive) in experiment [13]; 3.55 µM (inactive) in experiment [19]; 16.5 µM (inactive) in [15]; 15.5 µM (inactive) in experiment [16]; 2.82 µM (inactive) in experiment [17].

As for `O=c1c2cc(Cl)ccc2[nH]c2cc(O)cc(O)c12`, the GI50 in experiment [1], in experiment [2], in [3], in experiment [4], in experiment [5] and in experiment [6] was > 10 µM (inactive) throughout. Besides, the GI50 in [8] was > 10 µM (inactive); in experiment [9], > 10 µM (inactive); in experiment [10], 1.61 µM (inactive); in experiment [18] it was > 10 µM (inactive); in [20], > 10 µM (inactive); in [11] it was > 10 µM (inactive). Also, the GI50 in experiment [12] is > 10 µM (inactive); in experiment [13] it was > 10 µM (inactive); in experiment [19], > 10 µM (inactive); in experiment [14], > 10 µM (inactive); in [15], > 10 µM (inactive); in experiment [16], 5.41 µM (inactive).

Consider `COC(=O)C1(Cc2cccc(Cl)c2)CCCCCCN1C(=O)c1ccccc1` (configuration not stated), for which the GI50 in experiment [1] was 14.5 µM (inactive); in [2] it was 16.7 µM (inactive); in experiment [4] it was 13.6 µM (inactive); in experiment [5] it was 13.1 µM (inactive); in experiment [6], 15.5 µM (inactive); in [7] it was 17.5 µM (inactive). Also, the GI50 is 13 µM (inactive) in [8]; 18.9 µM (inactive) in experiment [9]; 25.1 µM (inactive) in [10]; 15.2 µM (inactive) in experiment [18]; 14.5 µM (inactive) in experiment [20]; 15.8 µM (inactive) in experiment [11]. Also, the GI50 in experiment [12] was 4.98 µM (inactive); in [13], 6.7 µM (inactive); in experiment [14], 12.8 µM (inactive); in [15], 15.1 µM (inactive); in experiment [16] it was > 10 µM (inactive); in [17], 10.8 µM (inactive).

Turning to `CCOC(=O)CNc1c(OCc2ccccc2)c(=O)c1=O`, the GI50 in [1], in experiment [2], in experiment [4], in [5], in experiment [6] and in experiment [8] was > 100 µM (inactive) in each case. In addition, the GI50 in experiment [9], in experiment [10], in [20], in experiment [11], in experiment [12] and in experiment [13] was > 100 µM (inactive) throughout. For the same compound, the GI50 in experiment [19], in experiment [14], in [15], in [16] and in [17] was > 100 µM (inactive) each time.

Consider `Cc1cc2c(cc1C)C(=O)C1(C2)Cc2cc3c(cc2C1=O)CCC3` (configuration not stated), for which the GI50 was > 100 µM (inactive) in [1]; > 100 µM (inactive) in experiment [2]; > 100 µM (inactive) in experiment [3]; > 100 µM (inactive) in [4]; > 100 µM (inactive) in [5]; > 10 µM (inactive) in experiment [8]. Besides, the GI50 in experiment [9], in [10], in [18], in experiment [20], in experiment [11] and in experiment [12] was > 100 µM (inactive) each time. The GI50 in experiment [13], in [19], in [14], in experiment [15], in [16] and in [17] was > 100 µM (inactive) each time.

For `CCC(=O)O[C@H]1CC[C@H]2[C@@H]3CCC4=C/C(=N/NC(=O)c5cccc6c(=O)c7ccccc7[nH]c56)CC[C@]4(C)[C@H]3CC[C@]12C`, the GI50 in experiment [1] was > 25 µM (inactive); in experiment [2], > 25 µM (inactive); in experiment [4], > 25 µM (inactive); in [6], > 25 µM (inactive); in [7] it was 10.1 µM (inactive); in experiment [8], > 25 µM (inactive). Besides, the GI50 in experiment [9], in [10], in [18], in experiment [20], in experiment [11] and in experiment [12] was > 25 µM (inactive) each time. The GI50 in [13], in [19], in experiment [14], in [15], in experiment [16] and in [17] was > 25 µM (inactive) in each case.

As for `C/C(=N\Nc1nc2ccccc2n1C)c1ccc2ccccc2n1`, the GI50 is 2.71 µM (inactive) in experiment [1]; > 22.3 µM (inactive) in experiment [2]; 0.611 µM (active) in experiment [3]; 0.256 µM (active) in [4]; 0.791 µM (active) in experiment [5]; 3.13 µM (inactive) in [6]. Moreover, the GI50 was 1.64 µM (inactive) in experiment [7]; 0.916 µM (active) in [8]; 4.24 µM (inactive) in experiment [9]; 1.87 µM (inactive) in [10]; 2.56 µM (inactive) in [18]; 0.19 µM (active) in experiment [20]. Moreover, the GI50 in experiment [11] is 1.53 µM (inactive); in experiment [12], 0.212 µM (active); in experiment [19], 6.56 µM (inactive); in [14] it was 1.24 µM (inactive); in experiment [15], 4.66 µM (inactive); in [16], 4.36 µM (inactive). In addition, the GI50 in [17] is 1.04 µM (active).
